Test results published in patent publication US20260159536A1, “AKR1C3-ACTIVATED DNA ALKYLATING AGENT, AND MEDICAL APPLICATION THEREOF” (ASCENTAWITS PHARMACEUTICALS, LTD., priority 2021, published 2026).

Assays:
[1] = Blood-brain barrier assay of Compound AST-2870 (plasma and brain concentration, PK); type: in vivo, CD-1 mice
Description: Three CD-1 mice were administered 10 mg/kg of test Compound AST-2870 by intraperitoneal injection at each time point. Blood and brain tissues were taken at 5 min, 15 min, 30 min, 1 h, 1.5 h, and 2 h after administration, and the concentration of the test substance in the samples was determined by LC/MS method. The corresponding results of the concentrations of Compound AST-2870 in blood and brain tissue versus time were made into a curve graph, as shown in FIG. 37. The corresponding test results of the ratio of the concentration of the Compound AST-2870 in brain tissue and blood versus time were made into a curve graph, as shown in FIG. 38.

[2] = test system: HuPrime model LU0884 human lung cancer; experiment: In vivo pharmacodynamics, lung cancer LU0884 PDX model; design: species or system BALB/c nude mice; settings: for Size of tumor volume: Group 2, Paclitaxel 20 mg/kg
[3] = test system: HuPrime model LU2505 human lung cancer; experiment: In vivo pharmacodynamics, lung cancer LU2505 PDX model; design: species or system BALB/c nude mice; settings: for Tumor volume: 20 mg/kg i.p.
[4] = test system: human lung cancer NCI-H460-Luc2 cells (intracranial); experiment: In vivo pharmacodynamics, NCI-H460-Luc2 intracranial inoculation CDX model; design: species or system BALB/c nude mice; settings: 20 mg/kg, i.p. QWx3; Day 11
Description: The experiment was divided into groups of test drug Paclitaxel 20 mg/kg group, Compound A 2 mg/kg, 4 mg/kg and 8 mg/kg groups and 10% ethanol+10% polyoxyethylene castor oil+80% glucose injection DSW (pH 7.42) vehicle control group (Vehicle group), with 6 mice per group. […] The positive drug Paclitaxel 20 mg/kg group was administered by intraperitoneal injection and administered once a week for 3 weeks.
The pharmacodynamic analysis of each group in the human NCI-H460-luc intracranial inoculation model was performed based on the measured bioluminescence values on day 11 after administration, and the results were shown in Table 14.

[5] = test system: human lung cancer NCI-H460 cells; experiment: In vivo pharmacodynamics, NCI-H460 subcutaneous xenograft model; design: species or system BALB/c nude mice; settings: for Tumor volume: 100 mg/kg i.p.
P-gp = biological target: T1, P-gp (Homo sapiens, UniProt P08183); experiment: P-gp substrate evaluation, MDCKII-MDR1 penetration test with or without Verapamil; type: in vitro ADME; settings: Verapamil 0 μM
T1 construct: expressed in transfected cells; host or cells: MDCKII-MDR1 cells
Description: The conditions of the incubator were set as 37° C., 5% CO2, and 95% of the relative humidity.
After that, the MDCKII-MDR1 cells can be used for the penetration test.
(1) MDCKII-MDR1 transwell culture plate was taken out from the incubator.
(6) The upper and lower transportations were pooled and then incubated at 37° C. for 2 h.
After the sample tubes were vortexed for 10 min, and centrifuged at 3220 g for 30 min. […] Each sample was adopted to the three parallel incubation.
Efflux Ratio was calculated by the following formula: […]
Recovery was calculated by the following formula: […]

[6] = test system: HuPrime model PA1222 human pancreatic cancer; experiment: In vivo pharmacodynamics, pancreatic cancer PA1222 PDX model; settings: for Tumor volume: 120 mg/kg i.p.
Description: The test was divided into groups of test drug Gemcitabine 120 mg/kg group, test drug Compound A 10 mg/kg and 7.5% anhydrous ethanol+7.5% polyoxyethylene (35) castor oil+85% glucose injection DSW (pH 7.4) vehicle control group, a total of 3 groups, with 5 mice per group. […] Test drug Gemcitabine (Gemcitabine) 120 mg/kg group was administered intraperitoneally, once a week for three consecutive weeks.

[7] = Chiral stability under long-term and accelerated storage conditions; type: physicochemical
Description: Isomer stability under long-term and accelerated conditions was studied.
Compound A and isomers A-P1 and A-P2 were investigated for traits and isomeric stability at −20±5° C., 5° C.±3° C., 25° C.±2° C. (60%±5% RH) and 40° C.±2° C.

[8] = brain tissues, 10 mg/kg intraperitoneal injection, Mean
[9] = plasma, 10 mg/kg intraperitoneal injection, Mean
[10] = Paclitaxel 20 mg/kg, Q4Dx4, i.p., Day 28
[11] = 20 mg/kg i.p. every four days x4, Day 28
[12] = 25° C. ± 2° C./60% ± 5% RH, 1 month
[13] = 25° C. ± 2° C./60% ± 5% RH, 3 months
[14] = 40° C. ± 2° C./75% ± 5% RH, 1 month

T1 sequence (P08183 whole entry): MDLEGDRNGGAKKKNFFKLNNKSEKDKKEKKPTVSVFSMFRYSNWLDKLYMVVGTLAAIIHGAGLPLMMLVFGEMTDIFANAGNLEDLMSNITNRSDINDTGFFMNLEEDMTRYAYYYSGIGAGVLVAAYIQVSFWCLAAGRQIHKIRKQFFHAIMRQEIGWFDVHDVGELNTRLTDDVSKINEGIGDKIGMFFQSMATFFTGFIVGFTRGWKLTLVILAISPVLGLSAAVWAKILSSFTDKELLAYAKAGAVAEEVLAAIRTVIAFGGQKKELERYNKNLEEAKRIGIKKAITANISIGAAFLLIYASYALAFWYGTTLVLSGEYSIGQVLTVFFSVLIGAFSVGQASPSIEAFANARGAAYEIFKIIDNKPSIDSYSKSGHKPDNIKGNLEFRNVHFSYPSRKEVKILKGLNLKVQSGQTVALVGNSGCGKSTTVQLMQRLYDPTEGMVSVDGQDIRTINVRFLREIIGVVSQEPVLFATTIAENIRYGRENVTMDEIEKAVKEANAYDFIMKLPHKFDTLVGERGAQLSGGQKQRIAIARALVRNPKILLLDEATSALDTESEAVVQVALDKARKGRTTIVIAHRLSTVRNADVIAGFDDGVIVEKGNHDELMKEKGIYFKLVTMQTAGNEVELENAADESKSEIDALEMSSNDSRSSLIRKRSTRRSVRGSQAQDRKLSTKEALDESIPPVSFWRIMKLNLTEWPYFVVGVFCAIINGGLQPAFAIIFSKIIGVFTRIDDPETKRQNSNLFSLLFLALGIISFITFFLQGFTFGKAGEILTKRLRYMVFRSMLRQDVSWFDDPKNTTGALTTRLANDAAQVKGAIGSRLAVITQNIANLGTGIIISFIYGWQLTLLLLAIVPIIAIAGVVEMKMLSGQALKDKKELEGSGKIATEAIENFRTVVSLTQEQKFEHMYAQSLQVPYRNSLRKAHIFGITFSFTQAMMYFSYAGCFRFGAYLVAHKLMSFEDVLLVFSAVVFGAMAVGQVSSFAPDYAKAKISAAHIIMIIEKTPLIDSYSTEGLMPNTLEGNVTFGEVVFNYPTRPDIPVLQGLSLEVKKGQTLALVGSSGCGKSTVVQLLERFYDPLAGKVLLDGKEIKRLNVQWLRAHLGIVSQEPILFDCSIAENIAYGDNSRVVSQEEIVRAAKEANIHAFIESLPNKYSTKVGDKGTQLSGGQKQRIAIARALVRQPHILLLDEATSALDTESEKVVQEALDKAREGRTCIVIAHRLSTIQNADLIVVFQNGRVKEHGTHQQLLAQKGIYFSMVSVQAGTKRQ

CC(OP(=O)(N1CC1)N1CC1)c1ccc([N+](=O)[O-])c(Oc2cccc(C(=O)N(C)C)c2)c1 (centres unmarked) [AST-2870]
concentration in brain ([1]; 10 mg/kg i.p., after 30 minutes): lower than the lower limit of quantitation
blood-brain barrier penetration ([1]; 10 mg/kg intraperitoneal injection): could not cross the blood-brain barrier
AUCInf Ratio (Brain/Plasma) ([1]; 10 mg/kg intraperitoneal injection, Mean): 0.0227
AUCInf [1, 8]: 16.5 ng·h/g
AUClast [1, 8]: 16.3 ng·h/g
Tmax [1, 8]: 4.8 min
T½ [1, 8]: 4.48 min
AUCInf [1, 9]: 725 ng·h/mL
AUClast [1, 9]: 725 ng·h/mL
Cmax [1, 9]: 4023 ng/mL
T½ [1, 9]: 9 min

CC(=O)O[C@H]1C(=O)[C@@]2(C)[C@H]([C@H](OC(=O)c3ccccc3)[C@]3(O)C[C@H](OC(=O)[C@H](O)[C@@H](NC(=O)c4ccccc4)c4ccccc4)C(C)=C1C3(C)C)[C@]1(OC(C)=O)CO[C@@H]1C[C@@H]2O [Paclitaxel, reference compound]
Size of tumor volume ([2]; Day 0): 110.11 mm^3
Size of tumor volume ([2]; Day 4): 157.57 mm^3
Size of tumor volume ([2]; Day 7): 229.87 mm^3
Size of tumor volume ([2]; Day 11): 250.46 mm^3
Size of tumor volume ([2]; Day 14): 292.52 mm^3
Size of tumor volume ([2]; Day 18): 381.53 mm^3
Size of tumor volume ([2]; Day 21): 402.62 mm^3
Size of tumor volume ([2]; Day 25): 492.50 mm^3
Size of tumor volume ([2]; Day 28): 528.88 mm^3
T/C (%) [2, 10]: 78.79%
TGI (%) [2, 10]: 21.21%
Relative tumor volume (x ± S) ([2]; Paclitaxel 20 mg/kg, Q4Dx4, i.p., Day 28, mean ± standard error): 4.72 ± 1.26
Tumor volume (x ± S) ([2]; Paclitaxel 20 mg/kg, Q4Dx4, i.p., Day 28, mean ± standard error, in mm³ (unit assumed)): 528.88 ± 147.69
tumor inhibitory effect ([2]; Paclitaxel 20 mg/kg, Compound A 2.5, 5, 10 mg/kg): weak tumor inhibitory effect
Relative tumor volume (x ± S) [3, 11]: 2.29 ± 1.37
T/C (%) [3, 11]: 21.40%
TGI (%) [3, 11]: 78.60%
Tumor volume (x ± S) ([3]; 20 mg/kg i.p. every four days x4, Day 28, in mm³ (unit assumed)): 250.47 ± 157.81
Tumor volume ([3]; Day 0): 103.12 mm^3
Tumor volume ([3]; Day 4): 133.63 mm^3
Tumor volume ([3]; Day 7): 133.14 mm^3
Tumor volume ([3]; Day 11): 132.14 mm^3
Tumor volume ([3]; Day 14): 164.42 mm^3
Tumor volume ([3]; Day 18): 207.89 mm^3
Tumor volume ([3]; Day 21): 238.63 mm^3
Tumor volume ([3]; Day 25): 231.63 mm^3
Tumor volume ([3]; Day 28): 250.47 mm^3
Bioluminescence Value (Day 11) [4]: 4184.52 ± 1679.77 ×10^5 photon/second
T/C (%) [4]: 130.82%
TGI (%) [4]: −62.45%

N.N.O=C([O-])C1(C(=O)[O-])CCC1.[Pt+2] [Carboplatin, reference compound]
Tumor volume ([5]; Day 7): 145.46 mm^3
Tumor volume ([5]; Day 10): 262.15 mm^3
Tumor volume ([5]; Day 14): 409.97 mm^3
Tumor volume ([5]; Day 17): 529.44 mm^3
Tumor volume ([5]; Day 21): 761.56 mm^3
Tumor volume ([5]; Day 24): 960.42 mm^3
Tumor volume ([5]; Day 28): 1073.28 mm^3
Tumor volume ([5]; Day 31): 1230.93 mm^3
Tumor volume ([5]; Day 35): 1577.99 mm^3
Relative tumor volume (x ± S) ([5]; 100 mg/kg, QWx3, i.p., Day 31): 8.58 ± 1.16
T/C (%) ([5]; 100 mg/kg, QWx3, i.p., Day 31): 64.81%
TGI (%) ([5]; 100 mg/kg, QWx3, i.p., Day 31): 35.19%
Tumor volume (x ± S) ([5]; 100 mg/kg, QWx3, i.p., Day 31, in mm³ (unit assumed)): 1230.93 ± 258.17

COc1cc2nc(N3CCN(C(=O)c4ccco4)CC3)nc(N)c2cc1OC [Prazosin]
Efflux Ratio (P-gp): 2.90

Nc1ccn([C@@H]2O[C@H](CO)[C@@H](O)C2(F)F)c(=O)n1 [Gemcitabine, reference compound]
Tumor volume ([6]; Day 0): 111.91 mm^3
Tumor volume ([6]; Day 3): 136.17 mm^3
Tumor volume ([6]; Day 7): 153.75 mm^3
Tumor volume ([6]; Day 10): 157.55 mm^3
Tumor volume ([6]; Day 14): 147.44 mm^3
Tumor volume ([6]; Day 17): 136.71 mm^3
Tumor volume ([6]; Day 21): 138.01 mm^3
Tumor volume ([6]; Day 24): 153.69 mm^3
Tumor volume ([6]; Day 28): 166.11 mm^3
Relative tumor volume (x ± S) ([6]; 120 mg/kg, QWx3, i.p., Day 28): 1.49 ± 0.19
T/C (%) ([6]; 120 mg/kg, QWx3, i.p., Day 28): 42.83%
TGI (%) ([6]; 120 mg/kg, QWx3, i.p., Day 28): 57.17%
Tumor volume (x ± S) ([6]; 120 mg/kg, QWx3, i.p., Day 28): 166.11 ± 24.40

O=[N+]([O-])c1ccc(C(OP(=O)(N2CC2)N2CC2)C(F)(F)F)cc1Oc1ccc(-c2ccc(F)cc2)c(F)c1 (single isomer, unassigned) [A-P1]
Isomer peak A-P1 ([7]; 0 month): 99.92%
Isomer peak A-P2 ([7]; 0 month): 0.08%
Isomer peak A-P1 ([7]; 5° C. ± 3° C., 1 month): 99.92%
Isomer peak A-P2 ([7]; 5° C. ± 3° C., 1 month): 0.08%
Isomer transformation ([7]; 5° C. ± 3° C., 1 month): 0.00%
Isomer peak A-P1 ([7]; 5° C. ± 3° C., 3 months): 99.92%
Isomer peak A-P2 ([7]; 5° C. ± 3° C., 3 months): 0.08%
Isomer transformation ([7]; 5° C. ± 3° C., 3 months): 0.00%
Isomer peak A-P1 [7, 12]: 99.92%
Isomer peak A-P2 [7, 12]: 0.08%
Isomer transformation [7, 12]: 0.00%
Isomer peak A-P1 [7, 13]: 99.92%
Isomer peak A-P2 [7, 13]: 0.08%
Isomer transformation [7, 13]: 0.00%
Isomer peak A-P1 [7, 14]: 99.91%
Isomer peak A-P2 [7, 14]: 0.09%
Isomer transformation [7, 14]: 0.01%
colour and chirality after storage ([7]; −20° C., 5° C., 25° C./60% RH 3 months, 40° C./75% RH 1 month): essentially no change
Isomer peak A-P1 ([7]; −20 ± 5° C., 3 months): 99.92%
Isomer peak A-P2 ([7]; −20 ± 5° C., 3 months): 0.08%
Isomer transformation ([7]; −20 ± 5° C., 3 months): 0.00%
